The values that follow come from paper PMC6568410, “A scorpion venom peptide derivative BmKn‒22 with potent antibiofilm activity against Pseudomonas aeruginosa” (PLoS ONE, 2019).

Where no end group is shown, it is not given here.

One series concerns P. aeruginosa PAO1. In words: Growth assay, standard plate counts. It is filed as cell-based, Pseudomonas aeruginosa. The following applies: 800 µM, 24 h; for effect on bacterial counts (growth): compared with untreated control, result in words. On the procedure:
The effects of BmKn‒2 peptide and its derivatives on growth of P. aeruginosa PAO1 were carried out as described previously with some modifications. Bacterial suspension (10^6 CFU/mL) and the test peptides (800 μM, final concentration) were incubated at 37 ^OC at 150 rpm. Bacterial culture without the test peptides was used as the untreated control. After 24 h, bacterial concentration was evaluated. Cultures from each treatment were taken and 10-fold serial dilution was performed; 100 μL of each dilution was then spread on LB agar plates. Following incubation at 37°C for 24 h, the colonies were counted and expressed as log10 CFU/mL.

The subject of series [1] is P. aeruginosa PAO1 biofilm formation. As to the kind of experiment: Biofilm formation assay, crystal violet staining. It is filed as cell-based, Pseudomonas aeruginosa. As to conditions: for reduction of P. aeruginosa biofilms: 24 h, compared with untreated control, result in words. The method, then:
The effect of BmKn‒2 peptide and derivatives on biofilm formation of P. aeruginosa PAO1 was determined according to the method published previously with some modifications. Briefly, 100 μL of the test peptides was plated into the wells of flat-bottomed 96-well microtiter plates (Nunc™, Roskilde, Denmark) at the final concentrations of 200 ‒ 800 μM. Aliquots of the P. aeruginosa PAO1 suspension were then inoculated to the wells of 96-well microtiter plates to obtain a final concentration of 10^6 CFU/mL. Culture without the test peptides was used as the untreated control. After incubation at 37 ^OC for 24 h without agitation, planktonic cells were removed and the plates were gently rinsed twice with phosphate buffered saline (PBS) pH 7.4. Biofilms were then stained with 0.1% crystal violet solution (Merck, Darmstadt, Germany) for 10 minutes at room temperature. Excess stains were rinsed off with PBS pH 7.4 and the plates were left dry at 37 ^OC for 2 h. Subsequently, biofilm biomass was solubilized with 30% acetic acid and the optical density (OD) measured at 550 nm using a microplate reader (BioTek Synergy HT).

The next series concerns sheep red blood cells. As to the kind of experiment: Hemolytic assay. The following applies: 800 µM, 37 °C, 1 h. Type of series: cell-based. The method, then:
Hemolytic activity of the test peptides was assayed according to a protocol described previously. Suspension of 2% sheep red blood cells (100 μL) prepared in PBS pH 7.4 was incubated with 100 μL of the test peptides (800 μM, final concentration). After incubation at 37 ^OC for 1 h, the suspension was centrifuged at 1,000 g for 5 min followed by transferring 100 μL of the supernatant to 96 well-microtiter plate (Nunc). Released hemoglobin was then determined by measuring an absorbance at 405 nm using a microplate reader (BioTek Synergy HT). Positive and negative controls in this assay were 1% Triton X-100 and PBS pH 7.4, respectively. Hemolysis (%) was calculated using an equation: (OD405 nm peptide ‒ OD405 nm PBS pH 7.4)/(OD405 nm 1% Triton X-100 ‒ OD405 nm PBS pH 7.4) × 100.

In series [2] the test system is L929 mouse fibroblast cells. As to the kind of experiment: Cytotoxicity, MTT assay. It is filed as cell-based. The following applies: 800 µM, 24 h; for effect on viability of L929 cells: compared with untreated control, result in words; for Cell viability (%): L929 cells. On the procedure:
The toxicity of the test peptides against L929 mouse fibroblast cells was assessed by 3-(4,5-dimethylthiazol-2-yl)-2,5-diphenyltetrazolium bromide (MTT) assay. L929 mouse fibroblast cells from American Type Culture Collection (ATCC, Manassas, VA, USA) were cultured in Dulbecco's Modified Eagle Medium (DMEM; HyClone, Utah, USA) supplemented with 10% fetal bovine serum (Gibco, South America), 10 mM 4-(2-hydroxyethyl)-1 piperazineethanesulfonic acid (HEPES; HyClone, Utah, USA), 2 mM L-glutamine (Gibco, Brazil) and 100 U/mL penicillin and 100 μg/ml streptomycin (Gibco, USA) in a 5% CO2 atmosphere at 37°C. L929 cells (2×10^4 cells/well) were seeded in 96-well plates (Nunc) and incubated overnight. The culture medium was discarded and replaced by 100 μL of fresh DMEM containing the test compounds (final concentration 800 μM). Cells without the test compounds served as untreated control. After 24 h incubation, 20 μL of MTT solution (5 mg/mL; Sigma, St. Louis, MO, USA) was added and incubated for 3 h. The culture supernatant was removed and 100 μL dimethyl sulfoxide was added to each well to dissolve the formazan crystals. The absorbance was measured at 540 nm on a microplate reader (BioTek Synergy HT). Percentage of cell viability was calculated according to the equation: (OD of treated cells/ OD of untreated cells) × 100.

The subject of series [3] is P. aeruginosa PAO1 established biofilms. In words: Established (24 h-preformed) biofilm assay, crystal violet staining. It is filed as cell-based, Pseudomonas aeruginosa. The method, then: Antibiofilm activity of the test peptides was also examined against established biofilms as follows. Aliquots of the P. aeruginosa PAO1 suspension adjusted to a final concentration of 10^6 CFU/mL were seeded into the wells of flat-bottomed 96-well microtiter plates (Nunc). Biofilms were established at 37°C for 24 h. After incubation, nonadherent planktonic cells were removed by gently washing the wells with sterile PBS pH 7.4. Preformed biofilms were then treated with the test peptides at concentrations of 200 ‒ 800 μM and incubated at 37°C for 24 h. Culture without the test peptides served as the untreated control. After the incubation, the test peptides were aspirated gently and the plates were rinsed twice with PBS pH 7.4. Biofilm biomass was subsequently quantified by 0.1% crystal violet staining as previously described.

[4] abbreviates: 37 °C, 150 rpm, plate counts, untreated control 9.183, mean of 3 independent experiments.
[5] abbreviates: Exp. 1 (untreated control 9.082).
Where [6] appears, read: Exp. 2 (untreated control 9.198).
Setting [7] is: Exp. 3 (untreated control 9.268).

On to FIGAIAR [BmKn-26], for which the “Bacterial growth, Log10 CFU/mL” value amounted to 9.247 Log10 CFU/mL in the series on P. aeruginosa PAO1 (setting [4]), 9.213 Log10 CFU/mL in the series with P. aeruginosa PAO1 (setting [5]), 9.213 Log10 CFU/mL in the series on P. aeruginosa PAO1 (setting [6]) and 9.314 Log10 CFU/mL with P. aeruginosa PAO1 (setting [7]). In the series with P. aeruginosa PAO1, the “effect on bacterial counts (growth)” value is “no significant (P > 0.05) differences in bacterial counts”. Also, the “reduction of P. aeruginosa biofilms” value in series [1] (800 µM) is “less biofilm reduction activities”. Moreover, in the series on sheep red blood cells, the “lysis of red blood cells” value is “less or no hemolysis”. For the same substance, in series [2], the “effect on viability of L929 cells” value is recorded as “low effects on cell viability”. Besides, the “Cell viability (%)” value in series [2] (Exp. 1) is 85.233%; in series [2] (Exp. 2), 87.113%; in series [2] (Exp. 3), 79.724%.

On to FIGAIARL [BmKn-25], for which the “Bacterial growth, Log10 CFU/mL” value in the series with P. aeruginosa PAO1 (setting [4]) was 9.293 Log10 CFU/mL; in the series on P. aeruginosa PAO1 (setting [5]), 9.255 Log10 CFU/mL; with P. aeruginosa PAO1 (setting [6]), 9.288 Log10 CFU/mL; with P. aeruginosa PAO1 (setting [7]), 9.335 Log10 CFU/mL. Also, the “effect on bacterial counts (growth)” value in the series with P. aeruginosa PAO1 is recorded as “no significant (P > 0.05) differences in bacterial counts”. Besides, the “reduction of P. aeruginosa biofilms” value in series [1] (800 µM) is listed as “less biofilm reduction activities”. The “lysis of red blood cells” value in the series on sheep red blood cells is reported as “less or no hemolysis”. Besides, the “effect on viability of L929 cells” value in series [2] is reported as “low effects on cell viability”. Besides, the entries for the “Cell viability (%)” value in series [2] (Exp. 1), in series [2] (Exp. 2) and in series [2] (Exp. 3) were 82.909%, 93.165% and 83.012%, respectively.

Turning to FIGAIARLL [BmKn-24], the “Bacterial growth, Log10 CFU/mL” value in the series with P. aeruginosa PAO1 (setting [4]) turned out to be 9.313 Log10 CFU/mL; in the series on P. aeruginosa PAO1 (setting [5]), 9.304 Log10 CFU/mL; with P. aeruginosa PAO1 (setting [6]) it was 9.273 Log10 CFU/mL; with P. aeruginosa PAO1 (setting [7]), 9.364 Log10 CFU/mL. Besides, in the series with P. aeruginosa PAO1, the “effect on bacterial counts (growth)” value is “no significant (P > 0.05) differences in bacterial counts”. Further, the “reduction of P. aeruginosa biofilms” value in series [1] (800 µM) is “less biofilm reduction activities”. Besides, the “lysis of red blood cells” value in the series on sheep red blood cells is reported as “less or no hemolysis”. The “effect on viability of L929 cells” value in series [2] is listed as “low effects on cell viability”. The “Cell viability (%)” value in series [2] (Exp. 1) is recorded as 84.274%; in series [2] (Exp. 2), 81.538%; in series [2] (Exp. 3) it was 83.751%.

Turning to FIGAIARLLS [BmKn-23], the “Bacterial growth, Log10 CFU/mL” value with P. aeruginosa PAO1 (setting [4]) is 9.429 Log10 CFU/mL; with P. aeruginosa PAO1 (setting [5]) it was 9.488 Log10 CFU/mL; with P. aeruginosa PAO1 (setting [6]), 9.359 Log10 CFU/mL; with P. aeruginosa PAO1 (setting [7]), 9.440 Log10 CFU/mL. The “effect on bacterial counts (growth)” value in the series on P. aeruginosa PAO1 is recorded as “no significant (P > 0.05) differences in bacterial counts”. Besides, the “Biofilm inhibition (%), biofilm formation” value in series [1] (200 µM, Exp. 1) turned out to be 28.654%; in series [1] (200 µM, Exp. 2), 28.944%; in series [1] (200 µM, Exp. 3), 40.209%; in series [1] (400 µM, Exp. 1), 34.053%; in series [1] (400 µM, Exp. 2), 36.612%; in series [1] (400 µM, Exp. 3) it was 46.402%. For the same substance, the “Biofilm inhibition (%), biofilm formation” value in series [1] (800 µM, Exp. 1) is recorded as 44.669%; in series [1] (800 µM, Exp. 2), 49.083%; in series [1] (800 µM, Exp. 3) it was 70.992%. The “reduction of P. aeruginosa biofilms” value in series [1] (800 µM) was “marked reduction”. Further, the “lysis of red blood cells” value in the series on sheep red blood cells is reported as “less or no hemolysis”. Besides, the “effect on viability of L929 cells” value in series [2] is “low effects on cell viability”. Further, the figures for the “Cell viability (%)” value in series [2] (Exp. 1), in series [2] (Exp. 2) and in series [2] (Exp. 3) were 80.383%, 84.400% and 88.135%, respectively. For the same substance, the “Biofilm inhibition (%), preformed biofilm” value in series [3] (200 µM, Exp. 1) came out at 0.000%; in series [3] (200 µM, Exp. 2), 3.802%; in series [3] (200 µM, Exp. 3), 6.512%; in series [3] (400 µM, Exp. 1), 12.191%; in series [3] (400 µM, Exp. 2), 4.570%; in series [3] (400 µM, Exp. 3), 0.000%. In addition, the “Biofilm inhibition (%), preformed biofilm” value in series [3] (800 µM, Exp. 1) is reported as 3.155%; in series [3] (800 µM, Exp. 2), 0.000%; in series [3] (800 µM, Exp. 3), 8.639%. The “% inhibition of 24 h-preformed P. aeruginosa biofilms” value in series [3] (range over 200 - 800 µM, 24 h treatment) is listed as “No eradication activity”.

In the case of FIGAIARLLSKI [BmKn-21], the “Bacterial growth, Log10 CFU/mL” value turned out to be 6.183 Log10 CFU/mL with P. aeruginosa PAO1 (setting [4]), 6.000 Log10 CFU/mL in the series on P. aeruginosa PAO1 (setting [5]), 6.314 Log10 CFU/mL in the series on P. aeruginosa PAO1 (setting [6]) and 6.236 Log10 CFU/mL in the series on P. aeruginosa PAO1 (setting [7]). Also, the “effect on bacterial counts (growth)” value with P. aeruginosa PAO1 is given as “reduction in bacterial counts”. In addition, the “reduction of P. aeruginosa biofilms” value in series [1] (800 µM) is “marked reduction”. Also, the “effect on viability of L929 cells” value in series [2] was “significant decrease (P < 0.001) in viability”. Also, the “Cell viability (%)” value in series [2] (Exp. 1) was found to be 1.974%; in series [2] (Exp. 2), 1.699%; in series [2] (Exp. 3) it was 1.835%.

As to “FIGAIARLLSKIF [BmKn-2, reference compound]”, the “Bacterial growth, Log10 CFU/mL” value came out at 6.872 Log10 CFU/mL in the series on P. aeruginosa PAO1 (setting [4]), 6.755 Log10 CFU/mL in the series with P. aeruginosa PAO1 (setting [5]), 6.448 Log10 CFU/mL in the series with P. aeruginosa PAO1 (setting [6]) and 7.411 Log10 CFU/mL in the series on P. aeruginosa PAO1 (setting [7]). Also, the “effect on bacterial counts (growth)” value with P. aeruginosa PAO1 is recorded as “reduction in bacterial counts”. Also, in series [1] (800 µM), the “reduction of P. aeruginosa biofilms” value is reported as “marked reduction”. In addition, the “effect on viability of L929 cells” value in series [2] is given as “significant decrease (P < 0.001) in viability”. The “Cell viability (%)” value is 2.236% in series [2] (Exp. 1), 2.027% in series [2] (Exp. 2) and 1.988% in series [2] (Exp. 3).
